# Test results as given in patent EP0816361A2, “Preparation of substituted alkenoic acids” (ELI LILLY AND COMPANY, priority 1996, dated 1998).
# System: TXA2 agonist activity
# Assay: Absence of Agonist Activity (pressor response in pithed rats)
# Assay type: in vivo
"pressor response (i.v. administration, doses up to 10 mg/kg)",mean arterial pressure (one minute after dosing at 0.1 mg/kg i.v.),Structure (SMILES)
absence of a pressor response,,"O=C(O)CCCC/C=C(\c1ccc(-c2nc(C(=O)NCCCCC3CCCCC3)co2)cc1)c1cccnc1 [Example 2, (E)-7-[4-[4-[[(4-Cyclohexylbutyl)amino]carbonyl]-2-oxazolyl]phenyl]-7-(3-pyridyl)hept-6-enoic Acid]"
,"transient, but significant, increase",O=C(O)CCC/C=C\C[C@H]1[C@@H]2CC[C@@H](C2)[C@@H]1NS(=O)(=O)c1ccccc1 [Example S-145]
